Source: patent US5229419A, “Chemotherapeutically active acetogenins” (Purdue Research Foundation, priority 1992, dated 1993)
≈ marks a conversion by molar mass, not a printed value. Where two headings read alike, the source gives them in different places.

Legend:
mice = settings: cited from earlier work
Mexican bean beetle = settings: cited from earlier work
melon aphid = settings: cited from earlier work
[1] = system: 9KB (human nasopharyngeal carcinoma); settings: cited from earlier work
[2] = system: free-living nematode, Caenorabditis elegans; settings: cited from earlier work
stripped cucumber beetle = settings: cited from earlier work
mosquito larvae = settings: cited from earlier work
two spotted spider mites = settings: cited from earlier work
blow fly larvae = settings: cited from earlier work
3PS lymphocytic leukemia = settings: 0.0125 mg/kg; cited from earlier work
[3] = system: 9PS (murine lymphocytic leukemia); settings: cited from earlier work
[4] = system: HT-29 (human colon adenocarcinoma); assay: HT-29 cytotoxicity; assay type: cell-based; settings: HT-29, read-out: HT29 ED50
Method: (§1) Occasional checks in the potato disc (PD) assay assured us that antitumor activity was present [Ferrigni et al., J. Nat. Prod., 45; 679-686 (1982)]. Cytotoxicity tests were performed at the Purdue Cell Culture Laboratory, Purdue Cancer Center, using standard protocols for 9KB (human nasopharyngeal carcinoma) and 9PS (a chemically-induced murine lymphocytic leukemia) [Suffness et al., Methods In Cancer Research. Vol. 16: 73 (1979), V. T. DeVita, Jr. and H. Busch eds., Academic Press, New York], 9ASK (astrocytoma reversal) [Lgarashi et al., Cell Struct. and Funct., 3: 107 (1978)], A-549 (human lung carcinoma) [Giard et al., J. Nat. Cancer Inst., 51: 1417-1423 (1973)], and HT-29 (human colon adenocarcinoma) [Fogh J. (ed.), Human Tumor Cells, In Vitro, Plenum Press, New York: 115-159 (1975)].
(§2) These two compounds are the most bioactive acetogenins reported to this date. But the safety range for treatments might be larger. In this table, two cytotoxicity tests against human tumor cell lines such as the human lung carcinoma (A-549) [Giard et al., J. Nat. Cancer Inst. 51: 1417-1423 (1973)] and the human colon adenocarcinoma (HT-29) [Fogh, J. (ed.) Human Tumor Cells, In Vitro, pp. 115-159, Plenum Press, New York (1975)] have been performed. […] The mode of action for the acetogenins is still unknown, but it is postulated to involve cell membranes.

[5] = system: A-549 (human lung carcinoma); assay: A-549 cytotoxicity; assay type: cell-based; settings: A549, read-out: A549 ED50
Method: as §1, §2

[6] = system: brine shrimp (Artemia salina Leach); assay: whole plant or invertebrate; assay type: in vivo; settings: 24 hrs, read-out: BST LC50
Method: The extracts, fractions, and isolated compounds were routinely evaluated for lethality to brine shrimp larvae (BST). The LC50 of brine shrimp (Artemia salina Leach) was determined by substantially the same method described by Meyer et al. [Planta Med., 45: 31-34 (1982)]. The test sample was dissolved in solvent and added to 2-dram vials in an amount to provide 1000, 100, 10, 1, etc. p.p.m. of material in the final brine preparation, assuming complete miscibility in the brine. The vials were dried in vacuo, and artificial sea water, prepared from a commercial salt mixture, was added. Ten brine shrimp larva (nauplii), 48-72 hrs. old, were introduced to the vial, and the volume was made up to 5 ml. with the sea water. After 24 hrs., the percent mortality was computed. Subsequently, LC50 values and 95% confidence limits were calculated by a Finney probit analysis to permit comparison of potencies of extracts and fractions.
(§3) Anticancer activity is a potential use even for the crude extract. The bioassay results for the lethality of brine shrimp (BST), the inhibition of crown gall tumors on potato discs (PD), the reversal in morphology of db-cAMP induced AC glioma cells from that of mature, differentiated astrocytes to that of immature AC glioma cells (mouse brain cells) (9ASK), the dose that inhibits cell growth to one-half that of untreated poorly differentiated human epidermic carcinoma (9KB), the dose that inhibits cell growth to one-half that of a methylcholanthrene-induced lymphoid neoplasm in a DBA/2 mouse (9PS), and the percent displacement in a protein kinase C test for initial extract fractions are shown in Table 1. Obviously, the bioactivity is concentrated in F005.

[7] = system: 9PS (murine lymphocytic leukemia); assay: 9PS cytotoxicity; assay type: cell-based; settings: Mus musculus; read-out: 9PS ED50
Method: as §1, §3

[8] = system: 9KB (human nasopharyngeal carcinoma); assay: 9KB cytotoxicity; assay type: cell-based
Method: as §1, §3

human tumor cell lines = assay: selectivity of cytotoxicity between human tumor cell lines A-549 and HT-29; assay type: cell-based; settings: compared with bullatacin; A-549 vs HT-29
Source text: as §2

indicator organisms = assay: pesticidal bioassays, overall; settings: in vivo
Method: Pesticidal bioassays were conducted at Eli Lilly Laboratories (Greenfield, Ind.) following standard procedures with eight indicator organisms: mosquito larvae (ML) Aedes aegypti (in the media), blowfly larvae (BFL) (1% in the diet), corn root worm (CRW) Diabrotics undecimcuntata howardii (in soil), two-spotted spider mite (2SSM) Tetranychus urticae (on foliage), southern army worm (SAW) Spodoptera eridania (on foliage), melon aphid (MA) (5000 ppm on foliage), cotton aphid (CA) Aphis gossypii, (on foliage) and Haemonchus contortus (HC) (a nematode, 0.1% in the media).
The compounds can be formulated at concentrations of about 1 to about 200 ppm in conventional liquid or solid forms for application to pest infected areas.

[9] = system: P-388 (PS) lymphocytic leukemia; settings: cited from earlier work
[10] = system: P-388 lymphocytic leukemia; settings: cited from earlier work
PS = settings: cited from earlier work

| SMILES | IC50 [4] [ng/mL] | IC50 [5] [ng/mL] | LC50 [6] [µg/mL] | IC50 [7] [µg/mL] | 9KB ED50 [8] | other results |
| --- | --- | --- | --- | --- | --- | --- |
| CCCCCCCCCCC(O)C1CCC(C2CCC(C(O)CCCCCCCCCCC(O)CC3=CC(C)OC3=O)O2)O1 (stereo not shown) [Asimicin] | – | – | – | – | – | toxic to mice at (mice): 6.25 mg/kg; pesticidal activity (Mexican bean beetle): Promising pesticidal activity; pesticidal activity (melon aphid): Promising pesticidal activity; 9KB ED50 [1]: < 10^-5 μg/ml; pesticidal activity [2]: Promising pesticidal activity; pesticidal activity (stripped cucumber beetle): Promising pesticidal activity; pesticidal activity (mosquito larvae): Promising pesticidal activity; pesticidal activity (two spotted spider mites): Promising pesticidal activity; pesticidal activity (blow fly larvae): Promising pesticidal activity; % T/C (3PS lymphocytic leukemia): 124 % T/C; 9PS ED50 [3]: < 10^-7 μg/ml |
| CCCCCCCCCC[C@H](OC(C)=O)[C@H]1CC[C@H]([C@H]2CC[C@H]([C@@H](CCCCCCCCCC[C@H](CC3=C[C@H](C)OC3=O)OC(C)=O)OC(C)=O)O2)O1 [Bullatacin triacetate] | > 100 | 2 | 5.7 | 0.00389 | 6.85e-07 µg/mL | – |
| CCCCCCCCCC[C@H](OC(C)=O)[C@H]1CC[C@H]([C@H]2CC[C@H]([C@@H](CCCCCCCCCC[C@@H]3C[C@@H](CC(C)=O)C(=O)O3)OC(C)=O)O2)O1 [Bullatacinone diacetate] | 100 | 28 | > 10 | 0.0422 | 5000 µg/mL | – |
| CCCCCCCCCC[C@H](O)[C@H]1CC[C@H]([C@H]2CC[C@H]([C@H](O)CCCCCCCCCCC3CC(CC(C)=O)C(=O)O3)O2)O1 (stereo partly shown) [Bullatacinone] | – | 1 (≈ 1.61 nM) | 0.003 (≈ 4.82 nM) | 0.00423 (≈ 6.79 nM) | < 10^-12 mcg/ml | selectivity of cytotoxicities (human tumor cell lines): more selective cytotoxicities than bullatacin; pesticidal activity (indicator organisms): lack of pesticidal activity |
| CCCCCCCCCC[C@H](O)[C@H]1CC[C@H]([C@H]2CC[C@H]([C@H](O)CCCCCCCCCC[C@@H](O)CC3C[C@H](C)OC3=O)O2)O1 (stereo partly shown) [Dihydro-bullatacin] | 0.0333 (≈ 0.0533 nM) | < 0.001 | 0.0145 (≈ 23.2 nM) | – | – | – |
| CCCCCCCCCC[C@H](OC(C)=O)[C@H]1CC[C@H]([C@H]2CC[C@H]([C@H](O)CCCCCCCCCCCCC3=C[C@H](C)OC3=O)O2)O1 [Uvaricin] | – | – | – | – | – | activity in vivo against P-388 lymphocytic leukemia in mice [9]: demonstrated activity in vivo |
| CCCCCCC(O)CCCC(O)C1CCC(C2CCC(C(O)CCCCCCCCCCCCC3=CC(C)OC3=O)O2)O1 (stereo not shown) [isorollinicin] | – | – | – | – | – | in vitro cytotoxicity against P-388 [10]: in vitro cytotoxicity |
| CCCCCCCCCCC(O)C1CCC(C2CCC(C(O)CCCCCCCCCCC(O)CC3=CC(C)OC3=O)O2)O1 (stereo not shown) [rolliniastatin] | – | – | – | – | – | life extension (PS): 28% |
| CCCCCCCCC[C@@H](O)[C@@H](O)[C@@H]1CC[C@@H]([C@@H]2CC[C@@H]([C@@H](O)CCCCCCCCCCCCC3=CC(C)OC3=O)O2)O1 (stereo partly shown) [rollinicin] | – | – | – | – | – | in vitro cytotoxicity against P-388 [10]: in vitro cytotoxicity |
